Measured values reported in paper PMC9687610, “Adenosine-Mimicking Derivatives of 3-Aminopyrazine-2-Carboxamide: Towards Inhibitors of Prolyl-tRNA Synthetase with Antimycobacterial Activity” (Biomolecules, 2022).
≈ marks a conversion by molar mass, not a printed value. Read-outs that look alike come from different tables or passages of the source.

Experiments:
[1] = system: Lichtheimia corymbifera CCM 8077; test: Antifungal microdilution broth (EUCAST), LC; type: cell-based; settings: Lichtheimia corymbifera, CCM8077; read after 24 h; read-out: LC MIC
[2] = system: Candida krusei CCM 8271 (ATCC 6258); test: Antifungal microdilution broth (EUCAST), CK; type: cell-based; settings: Pichia kudriavzevii; read after 24 h; read-out: CK MIC
[3] = system: M. aurum DSM 43999 (ATCC 23366); test: Microplate Alamar Blue Assay (MABA), M. aurum; type: cell-based; settings: Mycolicibacterium aurum; MABA, resazurin after 72 h; read-out: M. aurum MIC
[4] = system: HepG2 human hepatocellular carcinoma cells; test: In vitro HepG2 cytotoxicity (CellTiter 96); settings: Homo sapiens, HepG2, 24 h, read-out: HepG2 IC50, 24 h incubation; * limit = highest evaluated concentration (precipitation in medium); ** over the 1000 µM limit
[5] = system: Klebsiella pneumoniae CCM 4415 (ATCC 10031); test: Antibacterial microdilution broth (EUCAST), KP; settings: read after 24 h
[6] = system: Acinetobacter baumannii DSM 30007 (ATCC 19606); test: Antibacterial microdilution broth (EUCAST), ACI; type: cell-based; settings: Acinetobacter baumannii; read after 24 h; read-out: ACI MIC
[7] = system: Candida parapsilosis CCM 8260 (ATCC 22019); test: Antifungal microdilution broth (EUCAST), CP; type: cell-based; settings: Lodderomyces parapsilosis; read after 24 h; read-out: CP MIC
[8] = system: Escherichia coli CCM 3954 (ATCC 25922); test: Antibacterial microdilution broth (EUCAST), EC; type: cell-based; settings: Escherichia coli; read after 24 h; read-out: EC MIC
[9] = system: Aspergillus fumigatus ATCC 204305; test: Antifungal microdilution broth (EUCAST), AF; type: cell-based; settings: Aspergillus fumigatus, ATCC204305; read after 24 h; read-out: AF MIC
[10] = system: Candida albicans CCM 8320 (ATCC 24433); test: Antifungal microdilution broth (EUCAST), CA; type: cell-based; settings: Candida albicans; read after 24 h; read-out: CA MIC
[11] = system: Mycobacterium smegmatis DSM 43465 (ATCC 607); test: Microplate Alamar Blue Assay (MABA), M. smegmatis; type: cell-based; settings: Mycolicibacterium smegmatis, read-out: M. smegmatis MIC
[12] = system: Mycobacterium tuberculosis H37Ra ITM-M006710 (ATCC 9431); test: Microplate Alamar Blue Assay (MABA), Mtb H37Ra; type: cell-based; settings: for MIC: Mycobacterium tuberculosis, 120 h, pH 6.6, MABA, Middlebrook 7H9 broth pH 6.6, resazurin after 120 h, read-out: Mtb H37Ra MIC
[13] = system: Staphylococcus epidermidis CCM 4418 (ATCC 12228); test: Antibacterial microdilution broth (EUCAST), SE; type: cell-based; settings: read after 24 h, read-out: SE MIC
[14] = system: Staphylococcus aureus subsp. aureus CCM 4223 (ATCC 29213); test: Antibacterial microdilution broth (EUCAST), SA; type: cell-based; settings: Staphylococcus aureus; read after 24 h; read-out: SA MIC
[15] = system: Enterococcus faecalis CCM 4224 (ATCC 29212); test: Antibacterial microdilution broth (EUCAST), EF; type: cell-based; settings: Enterococcus faecalis; read after 24 h; read-out: EF MIC
[16] = system: Aspergillus flavus CCM 8363; test: Antifungal microdilution broth (EUCAST), AFla; type: cell-based; settings: Aspergillus flavus, CCM8363; read after 24 h; read-out: AFla MIC
[17] = system: Staphylococcus aureus subsp. aureus methicillin-resistant (MRSA) CCM 4750 (ATCC 43300); test: Antibacterial microdilution broth (EUCAST), MRSA; type: cell-based; settings: Staphylococcus aureus; read after 24 h; read-out: MRSA MIC
[18] = system: Candida tropicalis CCM 8264 (ATCC 750); test: Antifungal microdilution broth (EUCAST), CT; type: cell-based; settings: Candida tropicalis; read after 24 h; read-out: CT MIC
[19] = system: Trichophyton interdigitale CCM 8377 (ATCC 9533); test: Antifungal microdilution broth (EUCAST), TI; type: cell-based; settings: Trichophyton interdigitale, 72 h, read-out: TI MIC
[20] = system: Pseudomonas aeruginosa CCM 3955 (ATCC 27853); test: Antibacterial microdilution broth (EUCAST), PA; type: cell-based; settings: Pseudomonas aeruginosa; read after 24 h; read-out: PA MIC

Row | Compound | MIC [1] | MIC [2] | MIC [3] | IC50 [4] | KP MIC [5] | MIC [6] | MIC [7] | MIC [8] | MIC [9] | MIC [10] | melting point | MIC [12] | MIC [13] | MIC [14] | MIC [15] | MIC [16] | MIC [17] | MIC [18] | MIC [19] | MIC [20] | also measured
1 | Cc1cccc(C(=O)Nc2nccnc2C(N)=O)c1 [Compound 3] | > 500 µM | > 500 µM | ≥ 250 µg/mL | > 100 µM | > 500 µM | > 500 µM | > 500 µM | > 500 µM | > 500 µM | > 500 µM | 226.9 to 228.8 °C | 62.5 µg/mL (≈ 244 µM) | > 500 µM | > 500 µM | > 500 µM | > 500 µM | > 500 µM | > 500 µM | > 500 µM | > 500 µM | MIC ([11]; MABA, resazurin after 48 h): ≥ 250 µg/mL
2 | CCc1ccc(C(=O)Nc2nccnc2C(N)=O)cc1 [Compound 5] | > 250 µM | > 250 µM | ≥ 500 µg/mL | > 100 µM | > 250 µM | > 250 µM | > 250 µM | > 250 µM | > 250 µM | > 250 µM | 215.5 to 218.5 °C | ≥ 500 µg/mL | > 250 µM | > 250 µM | > 250 µM | > 250 µM | > 250 µM | > 250 µM | > 250 µM | > 250 µM | MIC ([11]; MABA, resazurin after 48 h): ≥ 500 µg/mL; antimycobacterial activity (in words) ([12]; activity refers to Mtb H37Ra from the primary screening if not otherwise stated): no activity
3 | CC(C)(C)c1ccc(C(=O)Nc2nccnc2C(N)=O)cc1 [Compound 6] | > 125 µM | > 125 µM | ≥ 500 µg/mL | 114 µM | > 125 µM | > 125 µM | > 125 µM | > 125 µM | > 125 µM | > 125 µM | 210 to 211.5 °C | 15.6 µg/mL (≈ 52.4 µM) | > 125 µM | > 125 µM | > 125 µM | > 125 µM | > 125 µM | > 125 µM | > 125 µM | > 125 µM | MIC ([11]; 48 h): 15.6 µg/mL (≈ 52.4 µM)
4 | COc1ccccc1C(=O)Nc1nccnc1C(N)=O [Compound 7] | > 500 µM | > 500 µM | ≥ 500 µg/mL | > 500 µM | > 500 µM | > 500 µM | > 500 µM | > 500 µM | > 500 µM | > 500 µM | 205.4 to 206.7 °C | 125 µg/mL (≈ 459 µM) | > 500 µM | > 500 µM | > 500 µM | > 500 µM | > 500 µM | > 500 µM | > 500 µM | > 500 µM | MIC ([11]; MABA, resazurin after 48 h): 62.5 µg/mL (≈ 230 µM)
5 | COc1cccc(C(=O)Nc2nccnc2C(N)=O)c1 [Compound 8] | > 500 µM | > 500 µM | ≥ 250 µg/mL | > 100 µM | > 500 µM | > 500 µM | > 500 µM | > 500 µM | > 500 µM | > 500 µM | 221 to 223 °C | ≥ 250 µg/mL | > 500 µM | > 500 µM | > 500 µM | > 500 µM | > 500 µM | > 500 µM | > 500 µM | > 500 µM | MIC ([11]; MABA, resazurin after 48 h): ≥ 250 µg/mL
